Calls of active or inactive are those of the source. No rule for the calls is given here.
System: CCRIS mutagenicity, Ames/micronucleus/aberration tests
Experiment: CCRIS mutagenicity studies
Conditions: Test System: AMES SALMONELLA TYPHIMURIUM

In the case of Nc1ccc(-c2ccccc2)cc1, the mutagenic call (Strain/Indicator: DJ400, Metabolic Activation: TOBACCO TX1 CELLS, Method: PREINCUBATION) is reported as “inactive; negative”, the mutagenic call (Strain/Indicator: DJ460, Metabolic Activation: TOBACCO TX1 CELLS, Method: PREINCUBATION) is reported as “active; positive” and the mutagenic call (Strain/Indicator: MP110, Metabolic Activation: TOBACCO TX1 CELLS, Method: PREINCUBATION) is reported as “inactive; negative”. For the same molecule, the mutagenic call (Strain/Indicator: MP120, Metabolic Activation: TOBACCO TX1 CELLS, Method: PREINCUBATION) was “inactive; negative”, the mutagenic call (Strain/Indicator: MP208, Metabolic Activation: TOBACCO CELL-FREE TXIMX, Method: PREINCUBATION) was “active; positive” and the mutagenic call (Strain/Indicator: MP219, Metabolic Activation: TOBACCO CELL-FREE TXIMX, Method: PREINCUBATION) was “active; positive”. The mutagenic call (Strain/Indicator: TA97, Metabolic Activation: NONE, Method: STANDARD PLATE) was “inactive; negative”, the mutagenic call (Strain/Indicator: TA97, Metabolic Activation: RAT, LIVER, S-9, AROCLOR 1254, Method: STANDARD PLATE) was “active; positive” and the mutagenic call (Strain/Indicator: TA98(1,8-DNP6), Metabolic Activation: PLANT CELLS, Method: PREINCUBATION) was “active; positive”. For the same molecule, the mutagenic call (Strain/Indicator: TA98(1,8-DNP6), Metabolic Activation: TOBACCO CELL-FREE TXIMX, Method: PREINCUBATION) was “inactive; negative”, the mutagenic call (Strain/Indicator: TA98(NR), Metabolic Activation: TOBACCO CELL-FREE TXIMX, Method: PREINCUBATION) was “active; positive” and the mutagenic call (Strain/Indicator: TA98, Metabolic Activation: HUMAN, RED BLOOD CELL, CYTOSOL, Method: PREINCUBATION) was “active; positive”. For the same molecule, the mutagenic call (Strain/Indicator: TA98, Metabolic Activation: HUMAN, UROEPITHELIAL CELL CYTOSOL, Method: PREINCUBATION) was “inactive; negative”, the mutagenic call (Strain/Indicator: TA98, Metabolic Activation: HUMAN, UROEPITHELIAL CELL, MICROSOMES, Method: PREINCUBATION) was “inactive; negative” and the mutagenic call (Strain/Indicator: TA98, Metabolic Activation: HUMAN, UROEPITHELIAL CELL, S-9, Method: PREINCUBATION) was “inactive; negative”. For the same molecule, the mutagenic call (Strain/Indicator: TA98, Metabolic Activation: NONE, Method: PREINCUBATION) was “inactive; negative”, the mutagenic call (Strain/Indicator: TA98, Metabolic Activation: PLANT CELLS, Method: PREINCUBATION) was “active; positive” and the mutagenic call (Strain/Indicator: TA98, Metabolic Activation: RAT LIVER S-9, AROCLOR 1254, Method: PREINCUBATION) was “active; positive”. For the same molecule, the mutagenic call (Strain/Indicator: TA98, Metabolic Activation: RAT LIVER S-9, AROCLOR, Method: STANDARD PLATE) was “active; positive”, the mutagenic call (Strain/Indicator: TA98, Metabolic Activation: RAT, BLADDER, S-9, PCB, Method: FLUCTUATION TEST) was “active; positive” and the mutagenic call (Strain/Indicator: TA98, Metabolic Activation: RAT, LIVER, S-9, AROCLOR 1254 (4%), Method: STANDARD PLATE) was “active; positive”. The mutagenic call (Strain/Indicator: TA98, Metabolic Activation: RAT, LIVER, S-9, KC500 OR PHENOBARBITAL, Method: LIQUID SUSPENSION) was “active; positive”, the mutagenic call (Strain/Indicator: TA98, Metabolic Activation: TOBACCO CELL-FREE TXIMX, Method: PREINCUBATION) was “active; positive” and the mutagenic call (Strain/Indicator: TA100 (1,8-DNP), Metabolic Activation: MOUSE LIVER S-9, AROCLOR 1254, 10%, Method: PREINCUBATION) was “active; positive”. The mutagenic call (Strain/Indicator: TA100 (1,8-DNP), Metabolic Activation: RAT LIVER S-9, AROCLOR 1254, 10%, Method: PREINCUBATION) was “active; positive”, the mutagenic call (Strain/Indicator: TA100(NR), Metabolic Activation: TOBACCO CELL-FREE TXIMX, Method: PREINCUBATION) was “active; positive” and the mutagenic call (Strain/Indicator: TA100(TN:OAT), Metabolic Activation: TOBACCO CELL-FREE TXIMX, Method: PREINCUBATION) was “active; positive”. For the same molecule, the mutagenic call (Strain/Indicator: TA100, Metabolic Activation: MOUSE LIVER S-9, AROCLOR 1254, 10%, Method: PREINCUBATION) was “active; positive”, the mutagenic call (Strain/Indicator: TA100, Metabolic Activation: NONE, Method: PREINCUBATION) was “inactive; negative” and the mutagenic call (Strain/Indicator: TA100, Metabolic Activation: RAT LIVER S-9, AROCLOR 1254, 10%, Method: PREINCUBATION) was “active; positive”. The mutagenic call (Strain/Indicator: TA100, Metabolic Activation: RAT LIVER S-9, AROCLOR 1254, Method: PREINCUBATION) was “active; positive”, the mutagenic call (Strain/Indicator: TA100, Metabolic Activation: RAT LIVER S-9, AROCLOR, Method: STANDARD PLATE) was “active; positive” and the mutagenic call (Strain/Indicator: TA100, Metabolic Activation: RAT, BLADDER, S-9, PCB, Method: FLUCTUATION TEST) was “inactive; negative”. The mutagenic call (Strain/Indicator: TA100, Metabolic Activation: RAT, LIVER, S-9, KC500 OR PHENOBARBITAL, Method: LIQUID SUSPENSION) was “active; positive”.
